Results on 90 compounds are retold here after a melting point compilation (Tetko et al.; mined from patent text by program, amines drawn as free bases though some values may be those of a salt).

In general, melting point refers to the temperature of the solid-liquid transition.

Structures are written as SMILES. A value given as a limit tells only on which side of the number the result lay.

As to `N#Cc1cc(CO)nc(C(=O)Nc2cccc(Cl)c2)c1`, the melting point is 167 °C. The compound `COC(=O)/C=C/c1c(F)cc2nn(C)cc2c1C(=O)OC` displayed a melting point of 130 to 132 °C. As for `CCCCc1nn(-c2cc([N+](=O)[O-])ccc2Br)c(=O)n1Cc1ccc(-c2ccccc2S(=O)(=O)NC(C)(C)C)cc1F`, the figure is 137 to 139 °C; as for `CC(C)(C)C(=O)Oc1c(N2CCCC2)c(=O)n(-c2ccccc2)c2ncccc12`, 163 to 165 °C. For the compound `CSc1c(C(=O)O)ccc(F)c1F`, the melting point fell in the range of 149 to 150 °C. As for `COc1cc2c(c(OC)c1)C1=C(CC2)C2=CCC(=O)C2(C)CC1` (stereo not given), the figure is 120 to 121 °C; as for `O=C(Nc1cccc(C(F)(F)F)c1)N1CCCCc2cc(Oc3cc(Cl)ncn3)ccc21`, 120 °C; as for `COc1ccc(C2=NN(Cc3ccncc3)C(=O)[C@H]3CCCC[C@@H]23)cc1OC` (relative stereo), 87 to 89 °C. As for `COC(=O)c1cc2cc(OCc3ccccc3)ccc2n1CC(=O)N(C)CCc1ccccc1`, the figure is 155 to 156 °C. `O=C(NC1CCSc2cc(C(=O)O)ccc21)OCc1ccccc1` (stereo not given): the melting point lay in the range of 202 to 205 °C. As for `CCNC(=O)c1ccc(-c2ccc3nnn(Cc4ccc5ncccc5c4)c3n2)cc1F`, the figure is 207 to 209 °C; as for `CSC(=S)C1(c2ccc3ccccc3n2)CCCS1` (stereo not given), 72 °C; as for `CC(=C1SCCCS1)c1cccc(N)c1`, 99 to 100 °C. Next, `COc1cc(OC)nc(NC(=O)OC(C)C)n1`: 51 to 54 °C; `CCCCCCCCCCCCCC(=O)c1cc(O)c(C)c(C)c1O`: 100 °C; `CCc1ncnc(N[C@H]2CC[C@@H](CO)CC2)c1Cl`: 71 to 72 °C. As for `Cc1nn(-c2ccccn2)c2nc3ccccc3c(N3CCOCC3)c12`, the figure is 203 to 205 °C; as for `CC(C)CN1C(=O)C2=C3SC(S(N)(=O)=O)=CC1CC(C2)S3(=O)=O` (stereo not given), 239 to 241 °C. The compound `COc1cc(Nc2c(C#N)cnc3cc(C#CCN4CCN(C)CC4)sc23)c(Cl)cc1Cl` returned a melting point of 172 to 173 °C.

`Cc1nc(N2C[C@H](C)N(Cc3ccc(F)cc3)C2=O)sc1C(N)=O` came in with a melting point of 185 to 186 °C.

For `COc1c(C)c(C)c(OC)c(C(O)(c2ccccn2)C(C)C)c1C` (stereo not given), the melting point fell in the range of 99 to 100 °C. Next, `CCOP(=O)(OCC)C(F)(F)c1ccc(CN(Cc2ccc(C(F)(F)P(=O)(OCC)OCC)cc2)C(=O)NCc2ccccc2)cc1`: 124 to 127 °C; `Nc1cccc2[nH]c3c(c12)CCN(Cc1ccccc1)CC3`: 164 to 165 °C. As for `CC(O)Cn1c(COCc2ccccc2)nc(C(C)C)c1Sc1cc(Cl)cc(Cl)c1` (stereo not given), the figure is 155 to 157 °C; as for `Cc1cnc2n(c1=O)CCC2`, 82 °C.

In turn, `CCCc1c(OCCCOc2cc(O)c(-c3cocn3)cc2CC)cccc1Oc1ccccc1C(=O)O` gave a melting point of 60 to 61 °C. Next, `CCN1C(=O)CCCc2cc(Nc3ncc(Cl)c(Nc4c(F)cccc4C(=O)NC)n3)c(OC)cc21`: 254 to 256 °C. Next, `COP(=S)(OC)Oc1nsc(C)c1C#N`: 52 °C; `COc1ccc(C(N)=O)c(N)c1`: 152 to 156 °C. Next, `CCCCN1C(=O)C2CC(c3ccc(N)cc3)(C2)C1=O`: 178 to 179 °C. `COc1cc(OC)nc(SC)n1` returned a melting point of 50 to 52 °C. As for `OCn1nnc2ccccc21`, the figure is 148 °C; as for `C[C@H]1c2ccccc2N(C(=O)CCl)[C@H]1C` (relative stereo), 83 to 84 °C. `COc1cc(C(=O)N2Cc3ccc(C(=O)NCc4ccccc4)n3Cc3ccccc32)ccc1-c1ccccc1C` showed a melting point of 170 to 174 °C. Compound `CC(C)c1c(NC(=O)OCc2ccccc2)nc(-c2ccc(F)cc2)n1CCC1CC(O)CC(=O)O1` (stereo not given) yielded a melting point of 86 to 90 °C. Next, `Cc1ccc(I)c(I)c1C`: 175 to 178 °C; `O=C1c2ccccc2C(=O)N1CCCCCCN1CCC(c2nc(-c3ccncc3)c(-c3ccc(Cl)c(Cl)c3)[nH]2)CC1`: 129 to 134 °C. `CCOC(=O)c1cnnn1C[C@@H]1CN(c2ccc(N3CCC(=CC#N)CC3)c(F)c2)C(=O)O1` returned a melting point of 70 to 72 °C. Next, `CCOc1ccc(C=NOCCO)cn1`: 52 to 54 °C; `Cc1ccc(COC(C)CN(O)C(N)=O)s1` (stereo not given): 84 to 85 °C; `O=C(OCC1CCCN1)N1CCN(c2cc(N3CCCC3)nc(N3CCCC3)n2)CC1` (single isomer, unassigned; (+)): 137 to 138 °C. Compound `COc1cc(N)c(Cl)cc1C(=O)NCC1CCN(CCCS(=O)(=O)Cc2ccccc2)CC1` yielded a melting point of 166 to 168 °C. Next, `O=C1Oc2cc(O)ccc2CN1C1CCCCC1`: 193 to 196 °C; `O=C(Nc1ccc2c(c1)C(=O)c1cc(NC(=O)c3ccccc3)ccc1C2=O)c1ccccc1`: 224 °C; `Cc1nc2c(NCc3c(C)cccc3C)cc(C(=O)N(C)C)cc2[nH]1`: 203 °C. Compound `NC1=NN(c2nc3ccccc3s2)CC1` returned a melting point of 232 to 235 °C. As for `Nc1ccc2c(c1)nc(/C=C/c1ccccc1)n2-c1ccccn1`, the melting point was 146 to 148 °C. Next, `Cn1nc(-c2cccc(C(F)(F)F)c2)cc1C(=O)O`: 198 to 199 °C. Next, `OC1CSC(Oc2cncc(-c3ccc(F)cc3Cl)c2)C(O)C1O` (stereo not given): 208 to 211 °C; `CC1=NN(CC2CC2)CC2=C3C1=NN(c1ccc(C(C)C)cc1Br)C(=O)N3CC2`: 89 to 90 °C; `CCOC(=O)C1=C(OCC)C(OCC)=NS1(=O)=O`: 129 to 133 °C. For `Oc1cccc2c1CCC(c1ccccn1)O2` (stereo not given), the melting point lay within 246 to 248 °C. Next, `CC(Cc1c[nH]c2ccc(F)cc12)C(=O)O` (stereo not given): 112 to 113 °C. Next, `CCC1(CC)CN(C(C)(C)C)C(=O)C(CC)(CC)N1OCc1ccccc1`: 83 to 85 °C; `S=C(Nc1ccc(Cl)cc1)NC1C2CC3C(C2)C31` (stereo not given): 164 to 166 °C; `CC(=O)Nc1cccc2c(=O)n(C)c3ccccc3c(=O)c12`: 199 to 201 °C. As for `CCCCCC(=NOC)c1cc(C#N)c(=O)[nH]c1C`, the figure is 159 to 165 °C; as for `CCOC(=O)c1c(CN(CC)CC)nc2sc3cnccc3c2c1-c1ccc(OC)c(OC)c1`, 163 to 165 °C; as for `Nc1ccc(NC(=O)N(C[C@H]2CC[C@H](CN(C(=O)Nc3ccc(N)cc3)C3CCCCC3)CC2)C2CCCCC2)cc1`, 185 to 188 °C. `CCOc1nc(N)nc2sc(-c3ccc(F)cc3)cc12` showed a melting point of 142 °C. Next, `Cc1ccc(S(=O)(=O)N2[C@@H](C(=O)O)CC[C@H]2c2ccc(F)cc2)cc1` (racemic): 166 °C; `O=[N+]([O-])c1ccc(Br)cc1CS(=O)(=O)c1ccccc1`: 143 to 144 °C.

With `CN(C)C(=O)C(C)(C)n1cc(Cl)c(-c2ccccc2Cl)n1`, the melting point lay within 161 to 163 °C. The compound `COc1cc2sc(C=O)cc2c(Cl)c1OC` registered a melting point of 164 to 165 °C. Compound `COc1cc2c(cc1OC)CN(c1c(C)c(C)c3c(c1C)C(c1ccc(C(C)C)cc1)C(C)(C)O3)C2` (stereo not given) yielded a melting point of 153 to 155 °C. As for `COC(=O)c1c(C)noc1C(=O)NC(C)C`, the figure is 64 to 66 °C; as for `COCCC1(C(=O)N[C@@H](Cc2ccc(NC(=O)c3cc(C#N)ccc3Cl)cc2)C(=O)O)CCCC1`, 169 to 172 °C. As for `N#Cc1c[nH]c(-c2ccccc2)c1`, the figure is 150 to 151 °C; as for `N#Cc1nn(-c2c(Cl)cc(C(F)(F)F)cc2Cl)c(N)c1-c1ccccc1`, 198 to 199 °C.

The compound `CCc1cc(COc2nn(Cc3ccccc3)cc2CO)ccc1OCc1nc(-c2ccco2)oc1C` registered a melting point of 116 to 117 °C. As for `CC(=O)OCC1SC(Oc2cc(C)cc(O)c2C(C)=O)C(OC(C)=O)C(OC(C)=O)C1OC(C)=O` (stereo not given), the melting point was 162 to 164 °C.

Regarding `O=C(O)[C@H]1CC[C@H](Nc2ncc3ncnc(Nc4ccc(F)c(Cl)c4)c3n2)CC1`, the melting point is more than 290 °C. As for `COc1cc(OC)nc(-c2ccc(C)cc2)n1`, the figure is 61 to 62 °C; as for `Clc1ccc(-c2nc[nH]c2-c2cccs2)cc1`, 244 to 245 °C. Next, `Cc1cc(-c2cc(C(F)(F)F)nc(-c3cccc(-c4ccc(S(N)(=O)=O)s4)c3)n2)ccc1C(F)(F)F`: 216 °C. As for `O=C(Nc1ccc2[nH]c(=O)oc2c1)C(=O)N1CCC(Cc2ccccc2)CC1`, the figure is 190 to 193 °C. As for `CCCC(C)c1nn(-c2ccc(C(F)(F)F)cn2)cc1C=O` (stereo not given), the melting point lay in the range of 63 to 64 °C. As for `Cc1cc(Cl)c(N=C2NCCN2)cc1[N+](=O)[O-]`, the figure is 198 to 201 °C; as for `CNC(=O)c1ccccc1Nc1nc(Nc2ccc3c(c2)COCC2CCCCN32)ncc1Cl` (stereo not given), 220 to 221 °C; as for `CCN(CC)CCCC1CCCCN1C(=O)N1c2ccccc2C(=O)Nc2cccnc21` (stereo not given), 125 to 128 °C.

On to `CC(c1oc2ccccc2c(=O)c1-c1ccccc1)n1nc(-c2cccc(O)c2)c2c(N)ncnc21` (stereo not given), for which the melting point fell in the range of 212 to 216 °C. In turn, `CC(C)(C)C1NC(C(=O)O)CS1` (mixture of isomers) displayed a melting point of 184 °C.

`CS(=O)(=O)OCc1ccc(-c2nnc3n2-c2cccnc2Nc2ccccc2-3)cc1` displayed a melting point of 252 to 253 °C. In the case of `OCCON=Cc1ccccn1`, the melting point was found to be 45 °C. As for `CCN(CC)CCCOc1ccc(-c2nnc(CSCCOc3ccccc3)o2)cc1`, the figure is 27 to 31 °C; as for `OC[C@H]1OC(O)[C@H](O)[C@H](F)[C@@H]1O` (stereo not given in full), 120 to 122 °C.

`O=c1c2cccc3c2n(c(=O)n1CC(O)CO)-c1cc(C(F)(F)F)ccc1S3(=O)=O` (stereo not given) registered a melting point of 223 to 226 °C. As for `Nc1ncc(-c2ccccc2)nc1Br`, the figure is 148 to 152 °C. The compound `N#CCc1ccc(F)cc1I` came in with a melting point of 52 to 53 °C. Next, `NC(=O)N1CCNC1=O`: 200 °C.
